The assay addresses T1, human CRTH2 receptor (Homo sapiens, UniProt Q9Y5Y4, V204A).
T1 construct: expressed in transfected cells; host or cells: COS-7 (transient transfection)
T1 sequence (Q9Y5Y4 1-395 V204A): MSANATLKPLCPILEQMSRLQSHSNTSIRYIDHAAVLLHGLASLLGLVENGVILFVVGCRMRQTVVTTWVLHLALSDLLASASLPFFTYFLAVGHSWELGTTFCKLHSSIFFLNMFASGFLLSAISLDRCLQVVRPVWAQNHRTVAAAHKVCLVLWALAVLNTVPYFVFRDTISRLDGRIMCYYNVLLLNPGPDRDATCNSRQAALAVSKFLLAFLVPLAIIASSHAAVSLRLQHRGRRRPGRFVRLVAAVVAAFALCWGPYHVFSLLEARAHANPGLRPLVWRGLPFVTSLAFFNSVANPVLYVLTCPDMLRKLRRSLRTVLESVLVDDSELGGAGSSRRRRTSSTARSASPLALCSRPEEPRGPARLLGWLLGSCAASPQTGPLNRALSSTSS
Put plainly: CRTH2 receptor binding assay ([3H]PGD2 competition on whole transfected cells). Particulars: competition binding with 0.1 nM [3H]PGD2, whole cells expressing CRTH2, 3 h at 4° C. An excerpt: Generation/origin of the cDNA Constructs. The coding sequence of the human CRTH2 receptor (genbank accession no NM_004778) was amplified by PCR from a human hippocampus cDNA library and inserted into the pcDNA3.1(+) expression vector (invitrogen) via 5′ HindIII and 3′ EcoRI. The sequence identity of the construct was verified by restriction endonuclease digests and sequencing in both directions on an ABI Prism (Applied Biosystems, Foster City, Calif.).
Cell Culture and Transfection. COS-7 cells were grown in Dulbecco's modified Eagle's medium (DMEM) 1885 supplemented with 10% fetal bovine serum, 100 units/ml penicillin, […] streptomycin, and kept at 37° C. in a 10% CO2 atmosphere. HEK293 cells were maintained in Minimum Essential medium (MEM) supplemented with 10% (v/v) heat inactivated fetal calf serum (HIFCS), 2 mM Glutamax™-I, 1% non essential amino acids (NEAA), 1% sodium pyruvate and 10 μg/ml gentamicin. For binding experiments, COS7 cells were transiently transfected with the CRTH2 receptor using a calcium phosphate-DNA coprecipitation method with the addition of chloroquine (as described by Holst B, Hastrup H, Raffetseder U, Martini L, Schwartz T W. J Biol. Chem. 2001 Jun. 8; 276(23):19793-9.)
Binding assay. 24 h after transfection COS-7 cells were seeded into 96 well plates at a density of 30.000 cells/well. Competition binding experiments on whole cells were then performed about 18-24 h later using 0.1 nM [^3H]PGD2 (NEN, 172 Ci/mmol) in a binding buffer consisting of HBSS (GIBCO) and 10 mM HEPES. Competing ligands were diluted in DMSO which was kept constant at 1% (v/v) of the final incubation volume. Total and nonspecific binding were determined in the absence and presence of 10 μM PGD2. Binding reactions were routinely conducted for 3 h at 4° C. and terminated by 2 washes (100 μl each) with ice cold binding buffer. Radioactivity was determined by liquid scintillation counting in a TOPCOUNTER (Packard) following over night incubation in Microscint 20. Stable HEK293 cells were seeded at a density of 30.000 cells/well 18-24 h prior to the binding assay which was performed essentially as described for COS7 cells above. Determinations were made in duplicates.
Curve analysis was performed with the GraphPadPrism software 3.0 (Graphpad Prism Inc., San Diego, USA) and IC50 values were calculated as a measure of the antagonistic potencies.
For `O=C(COc1ccc(Cl)cc1)Nc1cccc(C(=O)Nc2ccccc2C(=O)O)c1` [B1, 2-{3-[2-(4-Chlorophenoxy)acetylamino]benzoylamino}benzoic acid], the IC50 (in general, the concentration at which inhibition is half-maximal) is under 0.5 µM.

Regarding `O=C(/C=C/c1ccc(OC(F)(F)F)cc1)Nc1cccc(C(=O)Nc2ccccc2C(=O)O)c1` [B2, 2-{3-[(E)-3-(4-Trifluoromethoxyphenyl)acryloylamino]benzoylamino}benzoic acid], the IC50 was under 0.5 µM.

As to `O=C(COc1ccc(Cl)cc1Cl)Nc1cccc(C(=O)Nc2ccccc2C(=O)O)c1` [B3, 2-{3-[2-(2,4-Dichlorophenoxy)acetylamino]benzoylamino}-benzoic acid], the IC50 is under 0.5 µM.

Consider `O=C(CCc1ccccc1)Nc1cccc(C(=O)Nc2ccccc2C(=O)O)c1` [B4, 2-[3-(3-Phenylpropionylamino)benzoylamino]benzoic acid], for which the IC50 lay in the range of 0.5 to 5 µM.

Compound `Cc1ccc(S(=O)(=O)Nc2cccc(C(=O)Nc3ccccc3C(=O)O)c2)cc1` [B5, 2-[3-(Toluene-4-sulfonylamino)benzoylamino]benzoic acid] had an IC50 of 0.5 to 5 µM.

`C/C(=C\c1ccccc1)C(=O)Nc1cccc(C(=O)Nc2ccccc2C(=O)O)c1` [B6, 2-[3-((E)-2-Methyl-3-phenylacryloylamino)benzoylamino]benzoic acid] yielded an IC50 of 0.5 to 5 µM.

In the case of `O=C(Nc1ccccc1C(=O)O)c1cccc(NS(=O)(=O)c2ccc(F)cc2)c1` [B7, 2-[3-(4-Fluoro-benzenesulfonylamino)benzoylamino]benzoic acid], the IC50 fell in the range of 0.5 to 5 µM.

Compound `O=C(Nc1ccc(OC(F)(F)F)cc1)Nc1cccc(C(=O)Nc2ccccc2C(=O)O)c1` [B8, 2-{3-[3-(4-Trifluoromethoxyphenyl)ureido]benzoylamino}benzoic acid] displayed an IC50 of 0.5 to 5 µM.

On to `COc1ccc(C(=O)Nc2cccc(C(=O)Nc3ccccc3C(=O)O)c2)cc1OC` [B9, 2-[3-(3,4-Dimethoxybenzoylamino)benzoylamino]benzoic acid], for which the IC50 lay within 0.5 to 5 µM.

`O=C(COCc1ccccc1)Nc1cccc(C(=O)Nc2ccccc2C(=O)O)c1` [B10, 2-[3-(2-Benzyloxyacetylamino)benzoylamino]benzoic acid]: the 50% inhibitory concentration (IC50) was 0.5 to 5 µM.

The compound `COc1ccc(C(=O)Nc2cccc(C(=O)Nc3ccccc3C(=O)O)c2)cc1` [B11, 2-[3-(4-Methoxybenzoylamino)benzoylamino]benzoic acid] had an IC50 of 0.5 to 5 µM.

For `O=C(COc1ccc(Cl)cc1)Nc1cc(C(=O)Nc2ccc(I)cc2C(=O)O)ccc1Cl` [B12, 2-{4-Chloro-3-[2-(4-chloro-phenoxy)acetylamino]benzoylamino}-5-iodobenzoic acid], the IC50 was 0.5 to 5 µM.

Consider `O=C(Nc1ccc(Br)cc1C(=O)O)c1cccc(S(=O)(=O)Nc2ccc(Cl)nc2)c1` [B13, 5-Bromo-2-[3-(6-chloropyridin-3-ylsulfamoyl)benzoylamino]benzoic acid], for which the IC50 was 0.5 to 5 µM.

The compound `O=C(Nc1ccc(Br)cc1C(=O)O)c1cccc(S(=O)(=O)Nc2ccc(OC(F)(F)F)cc2)c1` [B14, 5-Bromo-2-[3-(4-trifluoromethoxyphenylsulfamoyl)benzoylamino]benzoic acid] had an IC50 of 0.5 to 5 µM.

As for `O=C(Nc1ccc(Br)cc1C(=O)O)c1cccc(S(=O)(=O)Nc2ccc(Br)cc2)c1` [B15, 5-Bromo-2-[3-(4-bromophenylsulfamoyl)benzoylamino]benzoic acid], the IC50 was under 0.5 µM.

`O=C(Nc1ccc(Br)cc1C(=O)O)c1cccc(S(=O)(=O)Nc2cccc(Oc3ccccc3)c2)c1` [B16, 5-Bromo-2-[3-(3-phenoxyphenylsulfamoyl)benzoylamino]benzoic acid]: the IC50 was under 0.5 µM.

As for `O=C(Nc1ccc(Br)cc1C(=O)O)c1cccc(S(=O)(=O)Nc2ccc(I)cc2)c1` [B17, 5-Bromo-2-[3-(4-iodophenylsulfamoyl)benzoylamino]benzoic acid], the IC50 was under 0.5 µM.

The compound `O=C(Nc1ccccc1C(=O)O)c1ccc(Br)c(S(=O)(=O)Nc2ccc(Cl)nc2)c1` [B18, 2-[4-Bromo-3-(6-chloropyridin-3-ylsulfamoyl)benzoylamino]benzoic acid] returned an IC50 of 0.5 to 5 µM.

In turn, `O=C(Nc1ccccc1C(=O)O)c1ccc(Br)c(S(=O)(=O)Nc2ccc(OC(F)(F)F)cc2)c1` [B19, 2-[4-Bromo-3-(4-trifluoromethoxyphenylsulfamoyl)benzoylamino]benzoic acid] yielded an IC50 of under 0.5 µM.

Compound `Cc1c(S(=O)(=O)Nc2ccc(OC(F)(F)F)cc2)csc1C(=O)Nc1ccccc1C(=O)O` [B20, 2-[3-Methyl-4-(4-trifluoromethoxyphenylsulfamoyl)thiophene-2-carbonylamino]benzoic acid] showed an IC50 of under 0.5 µM.

With `O=C(Nc1ccccc1C(=O)O)c1ccc(Br)c(S(=O)(=O)Nc2cccc(Oc3ccccc3)c2)c1` [B21, 2-[4-Bromo-3-(3-phenoxyphenylsulfamoyl)benzoylamino]benzoic acid], the IC50 is under 0.5 µM.

`Cc1c(S(=O)(=O)Nc2cccc(Oc3ccccc3)c2)csc1C(=O)Nc1ccccc1C(=O)O` [B22, 2-[3-Methyl-4-(3-phenoxyphenylsulfamoyl)thiophene-2-carbonylamino]-benzoic acid]: the IC50 lay within 0.5 to 5 µM.

The compound `O=C(Nc1ccccc1C(=O)O)c1ccc(Br)c(S(=O)(=O)Nc2ccc(I)cc2)c1` [B23, 2-[4-Bromo-3-(4-iodophenylsulfamoyl)benzoylamino]benzoic acid] displayed an IC50 of under 0.5 µM.

The compound `Cc1c(S(=O)(=O)Nc2ccc(I)cc2)csc1C(=O)Nc1ccccc1C(=O)O` [B24, 2-[4-(4-Iodophenylsulfamoyl)-3-methylthiophene-2-carbonylamino]benzoic acid] showed an IC50 of under 0.5 µM.

The compound `Cc1c(S(=O)(=O)Nc2ccc(Br)cc2)csc1C(=O)Nc1ccccc1C(=O)O` [B25, 2-[4-(4-Bromophenylsulfamoyl)-3-methylthiophene-2-carbonylamino]-benzoic acid] showed an IC50 of under 0.5 µM.

In turn, `O=C(Nc1ccc(Br)cc1C(=O)O)c1ccc(Br)c(S(=O)(=O)Nc2ccc(Br)cc2)c1` [B26, 5-Bromo-2-[4-bromo-3-(4-bromophenylsulfamoyl)benzoylamino]benzoic acid] gave an IC50 of under 0.5 µM.

Compound `Cc1c(S(=O)(=O)Nc2ccc(Br)cc2)csc1C(=O)Nc1ccc(Br)cc1C(=O)O` [B27, 5-Bromo-2-[4-(4-bromophenylsulfamoyl)-3-methylthiophene-2-carbonylamino]benzoic acid] gave an IC50 of under 0.5 µM.

Consider `O=C(Nc1ccc(Br)cc1C(=O)O)c1cccc(S(=O)(=O)Nc2ccc(Cl)cc2)c1` [B28, 5-Bromo-2-[3-(4-chlorophenylsulfamoyl)benzoylamino]benzoic acid], for which the concentration for half-maximal inhibition (IC50) is under 0.5 µM.

Turning to `O=C(Nc1ccc(Br)cc1C(=O)O)c1cccc(S(=O)(=O)Nc2ccc(F)cc2)c1` [B29, 5-Bromo-2-[3-(4-fluorophenylsulfamoyl)benzoylamino]benzoic acid], the half-maximal inhibitory concentration (IC50) was under 0.5 µM.

`O=C(Nc1ccc(Cl)cc1C(=O)O)c1cccc(S(=O)(=O)Nc2ccc(Cl)cc2)c1` [B30, 5-Chloro-2-[3-(4-chlorophenylsulfamoyl)benzoylamino]benzoic acid]: the IC50 was under 0.5 µM.

Compound `O=C(Nc1ccc(Cl)cc1C(=O)O)c1cccc(S(=O)(=O)Nc2ccc(F)cc2)c1` [B31, 5-Chloro-2-[3-(4-fluorophenylsulfamoyl)benzoylamino]benzoic acid] yielded an IC50 of under 0.5 µM.

`Cc1ccc(OCC(=O)Nc2cccc(C(=O)Nc3ccccc3C(=O)O)c2)cc1C` [B32] showed an IC50 of under 0.5 µM.

(Values after patent publication US20090105218A1, “CRTH2 Receptor Ligands For Therapeutic Use” (7TM PHARMA A/S, priority 2004, published 2009).)
